According to ChEMBL document CHEMBL1201862, “PubChem BioAssay data set” (2004):
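These data come from cells grown in 96-well plates and exposed to compound for 48 hours at five concentrations. GI50 = concentration required for 50% inhibition of growth.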 The source made the active and inactive calls. No stated cut-off is given here; in the data, active = GI50 up to about 1.1 µM and inactive = higher.

How the values were obtained:
Test in all cases: DTP human tumour cell line panel, 48 h
HOP-62 = tested on: HOP-62
OVCAR-4 = tested on: OVCAR-4
MDA-MB-435 = tested on: MDA-MB-435
CAKI-1 = tested on: CAKI-1
UO-31 = tested on: UO-31
OVCAR-5 = tested on: OVCAR-5
HCT-15 = tested on: HCT-15
UACC-62 = tested on: UACC-62
Hs-578T = tested on: Hs-578T
SNB-19 = tested on: SNB-19
SK-OV-3 = tested on: SK-OV-3
786-0 = tested on: 786-0
EKVX = tested on: EKVX
SK-MEL-5 = tested on: SK-MEL-5
SW-620 = tested on: SW-620
A498 = tested on: A498
COLO 205 = tested on: COLO 205
CCRF-CEM = tested on: CCRF-CEM
Malme-3M = tested on: Malme-3M
RXF 393 = tested on: RXF 393

Structure (SMILES) | GI50 (HOP-62) | GI50 (OVCAR-4) | GI50 (MDA-MB-435) | GI50 (CAKI-1) | GI50 (UO-31) | GI50 (OVCAR-5) | GI50 (HCT-15) [µM] | GI50 (UACC-62) | GI50 (Hs-578T) | GI50 (SNB-19) | GI50 (SK-OV-3) | GI50 (786-0) | GI50 (EKVX) | GI50 (SK-MEL-5) | GI50 (SW-620) | GI50 (A498) | GI50 (COLO 205) | GI50 (CCRF-CEM) | GI50 (Malme-3M) | GI50 (RXF 393)
Cc1c2c(n3c(nc4ccccc43)c1C#N)NCC2 | > 10 µM (inactive) | > 10 µM (inactive) | > 10 µM (inactive) | > 10 µM (inactive) | > 10 µM (inactive) | > 10 µM (inactive) | > 10 | > 10 µM (inactive) | > 10 µM (inactive) | > 10 µM (inactive) | > 10 µM (inactive) | > 10 µM (inactive) | > 10 µM (inactive) | > 10 µM (inactive) | > 10 µM (inactive) | > 10 µM (inactive) | > 10 µM (inactive) | > 10 µM (inactive) | > 10 µM (inactive) | > 10 µM (inactive)
CC(O)C1(CNc2cc(Cl)nc(N)n2)CC(CCc2ccccc2)C1 (stereo not given) | 14.1 µM (inactive) | 10.2 µM (inactive) | 13.7 µM (inactive) | 11 µM (inactive) | 12.1 µM (inactive) | 17.2 µM (inactive) | 11.6 | 11.9 µM (inactive) | 17.3 µM (inactive) | 15.8 µM (inactive) | 15.1 µM (inactive) | 18.2 µM (inactive) | 10.2 µM (inactive) | 5.71 µM (inactive) | 15.8 µM (inactive) | 13.7 µM (inactive) | 15.5 µM (inactive) | 17.6 µM (inactive) | 13.3 µM (inactive) | 16.6 µM (inactive)
O=C(O)CCc1nc2ccccc2[nH]1 [PROCODAZOLE] | > 100 µM (inactive) | > 100 µM (inactive) | > 100 µM (inactive) | > 100 µM (inactive) | > 100 µM (inactive) | > 100 µM (inactive) | > 100 | > 100 µM (inactive) | > 100 µM (inactive) | > 100 µM (inactive) | 0.237 µM (active) | > 100 µM (inactive) | > 100 µM (inactive) | > 100 µM (inactive) | > 100 µM (inactive) | > 100 µM (inactive) | > 100 µM (inactive) | > 100 µM (inactive) | > 100 µM (inactive) | > 100 µM (inactive)
